According to patent US10900089B2, “Methods for predicting drug responsiveness in cancer patients” (Oncology Venture ApS, priority 2017, dated 2021):

Legend:
[1] = system: NCI60 cancer cell lines; assay: NCI60 growth assay: growth inhibition (GI50) profiles of therapeutic agents and their similarity; format: cell-based, human
Method: The human tumor cell lines of the cancer screening panel may be grown in RPMI 1640 medium containing 5% fetal bovine serum and 2 mM L-glutamine. Cells may be inoculated into 96 well microtiter plates in 100 μL at plating densities ranging from 5,000 to 40,000 cells/well depending on the doubling time of individual cell lines. After cell inoculation, the microtiter plates may be incubated at 37° C., 5% CO2, 95% air and 100% relative humidity for 24 hours prior to addition of experimental agent (e.g., an anthracycline, such as doxorubicin, epirubicin, daunorubicin, or idarubicin, or an anthracycline-containing liposome, such as a doxorubicin-containing liposome (e.g., 2B3-101)). […]
Following agent addition (e.g., an anthracycline, such as doxorubicin, epirubicin, daunorubicin, or idarubicin, or an anthracycline-containing liposome, such as a doxorubicin-containing liposome (e.g., 2B3-101)), the plates may be incubated for an additional 48 h at 37° C., 5% CO2, 95% air, and 100% relative humidity. […] Bound stain may be subsequently solubilized with 10 mM trizma base, and the absorbance may be read on an automated plate reader at a wavelength of 515 nm. […] Percentage growth inhibition may be calculated as: [(Ti−Tz)/(C−Tz)]×100 for concentrations for which Ti>/=Tz [(Ti−Tz)/Tz]×100 for concentrations for which Ti<Tz […]

[2] = system: breast cancer; assay: Clinical trial of 137 breast cancer patients treated with epirubicin (progression free survival, DRP validation); format: in vivo, human
Description: The biomarkers of sensitivity and resistance identified in Example 2 and shown in Tables 3 and 4 have been validated in a clinical trial of 137 breast cancer patients treated with epirubicin. Patients were examined every 9 to 12 weeks by CT scan and clinical evaluation. After patient informed consent, mRNA was isolated from formalin fixed paraffin embedded tumor tissue from diagnostic biopsies and analyzed using Affymetrix arrays. Blinded predictions of epirubicin efficacy were compared to clinical data collected retrospectively from patient medical records. Statistical analysis was performed using Cox proportional hazards model adjusted for treatment line. The primary endpoint was progression free survival (PFS). Median time to progression was 9.3 months (95% CI: 7.2-13.2). Of the 137 patients, four received epirubicin more than once.
The estimated hazard ratio was 0.56 (90% CI: 0.35-0.89) comparing two patients with DRP score differing by 50 percentage points. The estimated median time to progression for a patient with a DRP value of 25% was 7 months versus 13 months for a patient with a DRP value of 75%. No interaction with previous adjuvant chemotherapy was observed (p=0.98).

## COc1cccc2c1C(=O)c1c(O)c3c(c(O)c1C2=O)C[C@@](O)(C(=O)CO)C[C@@H]3O[C@H]1C[C@H](N)[C@@H](O)[C@H](C)O1 [epirubicin]
[1]
  anti-tumor activity compared with doxorubicin: nearly identical to that of doxorubicin
[2]; 137 breast cancer patients treated with epirubicin
  Median time to progression: 9.3 months
[2]; patient with a DRP value of 25%
  estimated median time to progression: 7 months
[2]; patient with a DRP value of 75%
  estimated median time to progression: 13 months

## CC(=O)[C@]1(O)Cc2c(O)c3c(c(O)c2[C@@H](O[C@H]2C[C@H](N)[C@H](O)[C@H](C)O2)C1)C(=O)c1ccccc1C3=O [idarubicine, idarubicin]
[1]; NCI60 growth assay, FIG. 1
  effect on the NCI60 tumor cell lines in multidimensional scaling plot of growth inhibition profiles: slightly different effect on the NCI60 tumor cell lines
